Like-named read-outs stand apart in the source and are kept apart here.
Assays:
[1] = tested on: iCell endothelial cells (human iPSC-derived ECs); assay: High-content imaging cytotoxicity in iCell endothelial cells, 24 h; type: cell-based; conditions: Homo sapiens, Endothelial cell, iPSC-EC, 24 hr; for viability at 0.1 µM / activity at 0.1 µM: 0.10 µM; for minimal effective concentration: top concentration 100.00 µM
How it was run: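 Human iPSC-derived endothelial cells (passages 1–5) were grown to a fibronectin-coated monolayer, then exposed 24 h at 37 °C with 0.5% DMSO vehicle. Staining was Hoechst 33342, MitoTracker Orange and calcein AM, read by high-content imaging. Point of departure came from 4-parameter logistic fits, with a 1-SD vehicle cutoff and 100 µM as the top concentration.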

[2] = tested on: iCell endothelial cells (human iPSC-derived ECs); assay: Tube formation (tubulogenesis) assay in iCell endothelial cells, 18 h; type: cell-based; conditions: Homo sapiens, Endothelial cell, iPSC-EC tube formation, 18 hr; for activity at 0.1 µM: 0.10 µM; for minimal effective concentration: top concentration 100.00 µM
How it was run: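 iCell ECs (passages 1–5) seeded 7,500 cells/well on reduced-growth-factor Geltrex in starvation medium, exposed overnight at 37°C to compounds in triplicate concentration–response (0.5% DMSO vehicle). Calcein AM staining, 4× imaging, angiogenesis image analysis; readouts normalized to vehicle, four-parameter logistic fit, POD at 1 SD of vehicle; 100 μM assigned NOAEL if no response.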

[3] = 0.00 µM control = 100.00, read-out: endo.cyto.24hr
[4] = 0.00 µM control = 100.00, read-out: endo.mito.24hr
[5] = 0.00 µM control = 100.00, read-out: endo.mitoint.24hr
[6] = 0.00 µM control = 100.00, read-out: endo.nma.24hr
[7] = 0.00 µM control = 100.00, read-out: endo.tc.24hrs
[8] = 0.00 µM control = 100.00, read-out: endo.mtl.18hr
[9] = 0.00 µM control = 100.00, read-out: endo.tlps.18hr
[10] = 0.00 µM control = 100.00, read-out: endo.tta.18hr
[11] = 0.00 µM control = 100.00, read-out: endo.ttl.18hr

`Oc1cccc(-c2ccc(Cl)cc2)c1` [3'-OH PCB3] was tested, and the viability at 0.01 µM [1, 3] was 93.4%, the activity at 0.01 µM [1, 4] was 93.6% and the activity at 0.01 µM [1, 5] was 123%. It also gave an activity at 0.01 µM [1, 6] of 101%, a viability at 0.01 µM [1, 7] of 93.4% and a viability at 0.1 µM [1, 3] of 99.8%. The activity at 0.1 µM [1, 4] was 100%, the activity at 0.1 µM [1, 5] was 111% and the activity at 0.1 µM [1, 6] was 97.6%. The viability at 0.1 µM [1, 7] was 99.8%, the viability at 1 µM [1, 3] was 98.9% and the activity at 1 µM [1, 4] was 99.4%. For the same compound, the activity at 1 µM [1, 5] was 118%, the activity at 1 µM [1, 6] was 97.4% and the viability at 1 µM [1, 7] was 98.9%. It also gave a viability at 10 µM [1, 3] of 102%, an activity at 10 µM [1, 4] of 102% and an activity at 10 µM [1, 5] of 129%. It also gave an activity at 10 µM [1, 6] of 98.3%, a viability at 10 µM [1, 7] of 102% and a viability at 100 µM [1, 3] of 45.2%. For the same compound, the activity at 100 µM [1, 4] was 58%, the activity at 100 µM [1, 5] was 98.4% and the activity at 100 µM [1, 6] was 90.1%. It also gave a viability at 100 µM [1, 7] of 79.2%, a minimal effective concentration ([1]; read-out: endo.cyto.24hr POD) of 45.8 µM and a minimal effective concentration ([1]; read-out: endo.mito.24hr POD) of 45.8 µM. For the same compound, the minimal effective concentration ([1]; read-out: endo.mitoint.24hr POD) was 100 µM, the minimal effective concentration ([1]; read-out: endo.nma.24hr POD) was 9.75 µM and the minimal effective concentration ([1]; read-out: endo.tc.24hrs POD) was 53.2 µM. The activity at 0.01 µM [2, 8] was 98%, the activity at 0.01 µM [2, 9] was 99.3% and the activity at 0.01 µM [2, 10] was 119%. The activity at 0.01 µM [2, 11] was 114%, the activity at 0.1 µM [2, 8] was 85.4% and the activity at 0.1 µM [2, 9] was 107%. It also gave an activity at 0.1 µM [2, 10] of 73%, an activity at 0.1 µM [2, 11] of 72.3% and an activity at 1 µM [2, 8] of 88.6%. The activity at 1 µM [2, 9] was 76.7%, the activity at 1 µM [2, 10] was 71.5% and the activity at 1 µM [2, 11] was 69.4%. For the same compound, the activity at 10 µM [2, 8] was 59%, the activity at 10 µM [2, 9] was 33.8% and the activity at 10 µM [2, 10] was 39.4%. The activity at 10 µM [2, 11] was 39.8%, the activity at 100 µM [2, 8] was 46% and the activity at 100 µM [2, 9] was 11.7%. For the same compound, the activity at 100 µM [2, 10] was 1.49%, the activity at 100 µM [2, 11] was 2.14% and the minimal effective concentration ([2]; read-out: endo.mtl.18hr POD) was 0.36 µM. It also gave a minimal effective concentration ([2]; read-out: endo.tlps.18hr POD) of 1.03 µM, a minimal effective concentration ([2]; read-out: endo.tta.18hr POD) of 0.49 µM and a minimal effective concentration ([2]; read-out: endo.ttl.18hr POD) of 0.51 µM.
